These results are taken from patent publication US9079886B2, “Substituted triazole derivatives as gamma secretase modulators” (Janssen Pharmaceuticals, Inc., priority 2010, dated 2015).

For data set [1], the system named is Aβ42 and Aβtotal in the soluble fraction of brain homogenates. The experiment in a line: In vivo Aβ42 lowering: brain soluble Aβ42 and Aβtotal by ELISA after a single oral dose. Also on record: species or system mouse. Conditions: dose 30 mg/kg oral dosing, 4 h after dosing; for response vs control in vivo at 30 mg/kg: Mus musculus, po, 4 h. The text has this:
To determine whether acute administration of an Aβ42 lowering agent would reduce Aβ42 levels in vivo, non-transgenic rodents, e.g. mice or rats were used. Animals treated with the Aβ42 lowering agent were examined and compared to those untreated or treated with vehicle and brain levels of soluble Aβ42 and total A13 were quantitated by standard techniques, for example, using ELISA. Treatment periods varied from hours (h) to days and were adjusted based on the results of the Aβ42 lowering once a time course of onset of effect could be established.
(§1) A typical protocol for measuring Aβ42 lowering in vivo is shown but it is only one of many variations that could be used to optimize the levels of detectable Aβ. For example, Aβ42 lowering compounds were formulated in 20% of Captisol® (a sulfobutyl ether of β-cyclodextrin) in water or 20% hydroxypropyl β cyclodextrin. The Aβ42 lowering agents were administered as a single oral dose or by any acceptable route of administration to overnight fasted animals. After 4 h, the animals were sacrificed and Aβ42 levels were analysed.
(§2) Blood was collected by decapitation and exsanguinations in EDTA-treated collection tubes. Blood was centrifuged at 1900 g for 10 minutes (min) at 4° C. and the plasma recovered and flash frozen for later analysis. The brain was removed from the cranium and hindbrain. The cerebellum was removed and the left and right hemisphere were separated. The left hemisphere was stored at −18° C. for quantitative analysis of test compound levels. The right hemisphere was rinsed with phosphate-buffered saline (PBS) buffer and immediately frozen on dry ice and stored at −80° C. until homogenization for biochemical assays.
Mouse brains from non-transgenic animals were resuspended in 8 volumes of 0.4% DEA (diethylamine)/50 mM NaCl containing protease inhibitors (Roche-11873580001 or 04693159001) per gram of tissue, e.g. for 0.158 g brain, add 1.264 ml of 0.4% DEA. All samples were homogenized in the FastPrep-24 system (MP Biomedicals) using lysing matrix D (MPBio #6913-100) at 6 m/s for 20 seconds. Homogenates were centrifuged at 221.300×g for 50 min. The resulting high speed supernatants were then transferred to fresh eppendorf tubes. Nine parts of supernatant were neutralized with 1 part 0.5 M Tris-HCl pH 6.8 and used to quantify Aβtotal and Aβ42.
To quantify the amount of Aβtotal and Aβ42 in the soluble fraction of the brain homogenates, Enzyme-Linked-Immunosorbent-Assays were used. Briefly, the standards (a dilution of synthetic Aβ1-40 and Aβ-42, Bachem) were prepared in 1.5 ml Eppendorf tube in Ultraculture, with final concentrations ranging from 10000 to 0.3 pg/ml. The samples and standards were co-incubated with HRPO-labelled N-terminal antibody for Aβ42 detection and with the biotinylated mid-domain antibody 4G8 for Aβtotal detection. 50 μl of conjugate/sample or conjugate/standards mixtures were then added to the antibody-coated plate (the capture antibodies selectively recognize the C-terminal end of Aβ42, antibody JRF/cAB42/26, for Aβ42 detection and the N-terminus of Aβ, antibody JRF/rAβ/2, for Aβtotal detection). The plate was allowed to incubate overnight at 4° C. in order to allow formation of the antibody-amyloid complex. Following this incubation and subsequent wash steps the ELISA for Aβ42 quantification was finished by addition of Quanta Blu fluorogenic peroxidase substrate according to the manufacturer's instructions (Pierce Corp., Rockford, Il). A reading was performed after 10 to 15 min (excitation 320 nm/emission 420 nm).
For Aβtotal detection, a Streptavidine-Peroxidase-Conjugate was added, followed 60 min later by an addional wash step and addition of Quanta Blu fluorogenic peroxidase substrate according to the manufacturer's instructions (Pierce Corp., Rockford, Il). A reading was performed after 10 to 15 min (excitation 320 nm/emission 420 nm). […]
A general note: In an ELISA, binding on a coated surface is turned into a signal by an enzyme label.

A short description of data set [2]: Central brain availability: compound levels in plasma and brain. The data set is classed as in vivo. The note with it: mouse, dose 30 mg/kg oral dosing. Here is the method: as §1, §2
Also the central brain availability of Compounds 3, 5, 10 and A were measured:
The results are shown in Table 5 (dose 30 mg/kg oral dosing; 4 hours): […]

Data set [3] is described as follows: Liver metabolic stability assay, mouse liver microsomes. Format: in vitro ADME. The note with it: 1 μM substrate, 1 mg/ml protein, 37° C., 15 minutes. Here is the method:
(§3) Each compound was spiked into a suspension of liver microsomes prepared from the species under investigation, at a final substrate concentration of 1 μM, and a protein concentration of 1 mg/ml, and pre-incubated at 37° C. for 11 minutes. The incubation also contains a NADPH (3-nicotinamide adenine dinucleotide phosphate, reduced) regenerating system. After this preincubation period, NADP (β-nicotinamide adenine dinucleotide phosphate) was added to the active incubations, and the incubations maintained at 37° C. for 15 minutes, during which period metabolism can take place. After 15 minutes, 2 volumes of DMSO (dimethylsulfoxide) were added to each active incubation to inactivate and precipitate proteins. Control incubations were not preincubated at 37° C., but instead were quenched by the addition of DMSO prior to the addition of NADP. Following centrifugation, the supernatant from each incubation was transferred to a separate analysis plate, and analysed for the concentration of the parent compound by LC/MS/MS using a compound-specific LC/MS/MS method and a generic HPLC gradient. The turnover of the parent compound is expressed as the % reduction in concentration in the analyte samples compared to that in the control incubations. Each incubation is performed in triplicate.
On the technique in general: Liver microsomes are vesicles of endoplasmic reticulum, rich in cytochrome P450 enzymes.

A short description of data set [4]: Liver metabolic stability assay, human liver microsomes. The note with it: 1 μM substrate, 1 mg/ml protein, 37° C., 15 minutes. The data set is classed as in vitro ADME. Here is the method: as §3
[5] abbreviates: untreated animals (Ctrl) set at 100, read-out: Aβ42 (% vs Ctrl) _Mean.
The mark [6] stands for this setting: untreated animals (Ctrl) set at 100, 30 mg/kg.
Setting [7] is: untreated animals (Ctrl) set at 100, read-out: Aβtotal (% vs Ctrl)_Mean.

Like-named read-outs stand apart in the source and are kept apart here.

`COc1cc(Nc2nc(N3CCCC(C(F)(F)F)C3)n(C(C)C)n2)ccc1-n1cnc(C)n1` (single isomer, unassigned) [Compound 108] gave a melting point of 141.6 °C. In data set [1] (setting [5]), the response vs control in vivo at 30 mg/kg turned out to be 70%. Further, the “Aβtotal (% vs Ctrl)_Mean” value in data set [1] (setting [6]) turned out to be 94 % vs Ctrl.
Consider `COc1cc(Nc2nc(N3CCCC(C(F)(F)F)C3)n(C(C)C)n2)ccc1-n1cnc(C)n1` (single isomer, unassigned) [Compound 109], for which the melting point was 140.1 °C. In addition, in data set [1] (setting [6]), the “Aβ42 (% vs Ctrl) _Mean” value is given as 85 % vs Ctrl and the “Aβtotal (% vs Ctrl)_Mean” value is 117 % vs Ctrl.
With `COc1cc(Nc2nc(Oc3ccccc3Cl)n(C(C)C)n2)ccc1-n1cnc(C)n1` [Compound 3], the concentration at 4 h was determined as 8510 ng/g in data set [2] (brain, read-out: Brain) and 7740 ng/mL in data set [2] (plasma, read-out: Plasma).
Compound `COc1cc(Nc2nc(Oc3cccc(C(F)(F)F)c3)n(C(C)C)n2)ccc1-n1cnc(C)n1` [Compound 5] gave a melting point of 166.6 °C. Moreover, the concentration at 4 h in data set [2] (brain, read-out: Brain) is 1630 ng/g. The concentration at 4 h in data set [2] (plasma, read-out: Plasma) came out at 1630 ng/mL.
The compound `COc1cc(Nc2nc(-c3ccc(F)cc3)n(C)n2)ccc1-n1cnc(C)c1` [Compound 10] displayed a melting point of 247.1 °C. Also, the “turnover of the parent compound (% reduction in concentration vs control incubations), mouse liver microsomes” value in data set [3] worked out at 10%. The response vs control in vivo at 30 mg/kg in data set [1] (setting [5]) came out at 68%. Also, in data set [1] (setting [7]), the response vs control in vivo at 30 mg/kg was 110%. Besides, the “turnover of the parent compound (% reduction in concentration vs control incubations), human liver microsomes” value in data set [4] came out at 14%. Moreover, the concentration at 4 h in data set [2] (brain, read-out: Brain) is 4640 ng/g. The concentration at 4 h in data set [2] (plasma, read-out: Plasma) was 2700 ng/mL.
In the case of `COc1cc(Nc2nc(-c3cccc(C(F)(F)F)c3)n(C(C)C)n2)ccc1-n1cnc(C)c1` [Compound 46], the melting point was 186.8 °C. Further, in data set [1] (setting [5]), the response vs control in vivo at 30 mg/kg was determined as 61%. For the same compound, the response vs control in vivo at 30 mg/kg in data set [1] (setting [7]) worked out at 98%.
`COc1cc(Nc2nc(Oc3ccccc3Cl)n(C(C)C)n2)ccc1-n1cnc(C)c1` [Compound 52] showed a melting point of 167.1 °C. Besides, the response vs control in vivo at 30 mg/kg in data set [1] (setting [5]) turned out to be 45%. For the same compound, in data set [1] (setting [7]), the response vs control in vivo at 30 mg/kg is 112%.
Regarding `COc1cc(Nc2nc(N3CCCC(C(F)(F)F)C3)n(C(C)C)n2)ccc1-n1cnc(C)c1` (stereo not drawn) [Compound 54], the melting point was 173 °C. Moreover, the response vs control in vivo at 30 mg/kg in data set [1] (setting [5]) is 46%. The response vs control in vivo at 30 mg/kg in data set [1] (setting [7]) stood at 88%.
The matching figures for `Cc1cc(-c2ccc(Nc3nc(Oc4ccccc4Cl)n(C(C)C)n3)cc2)ccn1` [Compound 140]: 142.5 °C, 83% and 86%.
Turning to `COc1cc(Nc2nnc(-c3ccc(F)cc3)[nH]2)ccc1-n1cnc(C)c1` [Compound A, reference compound], the “turnover of the parent compound (% reduction in concentration vs control incubations), mouse liver microsomes” value in data set [3] is recorded as 22%. For the same compound, the figures for the response vs control in vivo at 30 mg/kg in data set [1] (setting [5]) and in data set [1] (setting [7]) were 101% and 106%, respectively. Besides, the “turnover of the parent compound (% reduction in concentration vs control incubations), human liver microsomes” value in data set [4] worked out at 64%. Also, the concentration at 4 h is 0 ng/g in data set [2] (brain, read-out: Brain) and 0 ng/mL in data set [2] (plasma, read-out: Plasma).

In general, melting point refers to the temperature of the solid-liquid transition.
